Tests used:
HGGX39 [1] = paediatric high-grade glioma line; assay: EC50 (inflection of fitted growth-inhibition curve) (log10 M)
In short: (§1)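 EC50 and maximal response (yFin) were derived from the lowest-AICc fit, either three- or four-parameter log-logistic. The data were pooled CellTiter-Glo luminescence values, log2-transformed and normalised per plate to % activity between negative (solvent) and positive controls. Patient-derived pHGG/DIPG cell lines and astrocyte controls on 1% Geltrex-coated 384-well plates received a 10-point threefold dilution series (mean top concentration 35 μM) by pin tool, in triplicate, for 7 days (iAstro 3 days) at 37 °C, 5% CO2.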

HGGX6 [2] = H3.3 G34R paediatric high-grade glioma line; assay: as above
In short: as §1

DIPGX29 [3] = H3.3 K27M diffuse intrinsic pontine glioma line; assay: as above
In short: as §1

DIPGX37 [4] = H3.3 K27M diffuse intrinsic pontine glioma line; assay: as above
In short: as §1

HGGX39 [5] = assay: area under dose-response curve of % growth inhibition (log2 RLU vs DMSO / staurosporine), 1e-11 to 1e-4 M (% x log10 M); higher = more growth inhibition
In short: (§2)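 Cells were exposed in triplicate for 7 days (iAstro: 3 days) at 37 °C, 5% CO2 to a 10-point series of threefold dilutions with a mean top concentration of 35 μM. These were patient-derived pHGG/DIPG lines plus astrocytes, grown on 384-well plates coated with 1% Geltrex. Readout was CellTiter-Glo luminescence, log2-transformed and set per plate to % activity between solvent and positive controls, from which area under the curve was derived by trapezoid rule on a log-logistic fit or, failing that, a smoothing spline.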

HGGX6 [6] = assay: as above
In short: as §2

DIPGX29 [7] = assay: as above
In short: as §2

DIPGX37 [8] = assay: as above
In short: as §2

HGGX39 [9] = assay: maximal growth inhibition (yFin) relative to DMSO / staurosporine; higher = more efficacious
In short: as §1

HGGX6 [10] = assay: as above
In short: as §1

DIPGX29 [11] = assay: as above
In short: as §1

DIPGX37 [12] = assay: as above
In short: as §1

| SMILES | EC50 (log10 M) (HGGX39 [1]) | EC50 (log10 M) (HGGX6 [2]) | EC50 (log10 M) (DIPGX29 [3]) | EC50 (log10 M) (DIPGX37 [4]) | area under dose-response curve (HGGX39 [5]) | area under dose-response curve (HGGX6 [6]) | area under dose-response curve (DIPGX29 [7]) | area under dose-response curve (DIPGX37 [8]) | maximal growth inhibition (HGGX39 [9]) [%] | maximal growth inhibition (HGGX6 [10]) [%] | maximal growth inhibition (DIPGX29 [11]) [%] | maximal growth inhibition (DIPGX37 [12]) [%] |
| --- | --- | --- | --- | --- | --- | --- | --- | --- | --- | --- | --- | --- |
| Nc1c2ccccc2nc2ccccc12 [9-AMINOACRIDINE] | -4.83 | -4.82 | -4.84 | -4.83 | 74 | 65.1 | 59.1 | 70.3 | 89.5 | 80.2 | 71 | 85.8 |
| CC[C@@]1(O)C[C@H](O[C@H]2C[C@H](N(C)C)[C@H](O[C@H]3C[C@H](O)[C@H](O[C@H]4CCC(=O)[C@H](C)O4)[C@H](C)O3)[C@H](C)O2)c2c(cc3c(c2O)C(=O)c2c(O)cccc2C3=O)[C@H]1C(=O)OC [ACLARUBICIN] | -5.35 | -5.33 | -5.38 | -6.79 | 118 | 111 | 96.6 | 173 | 65.6 | 62.1 | 58.7 | 62.1 |
| CCCCC(CC)CNC(=N)NC(=N)NCCCCCCNC(=N)NC(=N)NCC(CC)CCCC (stereo unspecified) [ALEXIDINE] | -5.64 | -5.48 | -6.06 | -5.67 | 126 | 105 | 130 | 126 | 80.3 | 73.3 | 63.3 | 78.2 |
| CCCCc1oc2ccccc2c1C(=O)c1cc(I)c(OCCN(CC)CC)c(I)c1 [AMIODARONE] | -4.83 | -4.8 | -4.79 | -4.76 | 74.6 | 63 | 63.6 | 63.2 | 89.3 | 78.8 | 80 | 83 |
| CCOC(=O)C1=C(COCCN)NC(C)=C(C(=O)OC)C1c1ccccc1Cl (stereo unspecified) [AMLODIPINE] | -4.83 | -4.75 | -4.86 | -4.82 | 75.8 | 64.5 | 69.2 | 72.4 | 91.4 | 85.6 | 80.4 | 88 |
| CCC(C)(C)c1ccc(CC(C)CN2C[C@@H](C)O[C@@H](C)C2)cc1 (stereo partly specified) [AMOROLFINE] | -5.11 | -5.36 | -5.09 | -5.29 | 103 | 58.4 | 47.6 | 62.1 | 72.1 | 41.6 | 33.2 | 48 |
| C[C@@H](O[C@H]1OCCN(Cc2n[nH]c(=O)[nH]2)[C@H]1c1ccc(F)cc1)c1cc(C(F)(F)F)cc(C(F)(F)F)c1 [APREPITANT] | -4.81 | -4.81 | -4.8 | -4.81 | 64.5 | 58.5 | 76.6 | 66.2 | 80 | 72.7 | 85.5 | 81.7 |
| CC[C@H](CC#N)OC(=O)N[C@@H](C)c1cccc(NC(=O)Nc2ccc(-c3cnco3)c(OC)c2)c1 [AVN-944] | -5.67 | -5.95 | -6.32 | -6.4 | 54.3 | 48 | 79.5 | 84.4 | 39.3 | 27.9 | 34.3 | 35.2 |
| O=C1COc2c(CCNCCN(C(=O)CCNCCc3ccc(Cl)c(Cl)c3)C3CCCCC3)ccc(O)c2N1 [AZ505] | -4.82 | -4.83 | -4.86 | -4.56 | 49.1 | 61.6 | 70.9 | 33.8 | 61.1 | 74.2 | 82.3 | 60.3 |
| COc1cc(OC2CCN(C)CC2)ccc1Nc1ncc2c(n1)n(C1CCCC1)c(=O)n2C [AZ3146] | -4.85 | -4.82 | -4.86 | -4.79 | 88.5 | 86.9 | 92.5 | 86.8 | 105 | 96.5 | 103 | 110 |
| Nc1nc2n[nH]nc2c(=O)[nH]1 [AZAGUANINE-8] | -5.31 | -5.25 | -5.14 | -5.07 | 74.2 | 31.2 | 45 | 58.7 | 54.2 | 25.9 | 38.3 | 53.8 |
| CC1=C(C(=O)OC(C)C)C(c2cccc([N+](=O)[O-])c2)C(C(=O)OC2CN(C(c3ccccc3)c3ccccc3)C2)=C(N)N1 (stereo unspecified) [AZELNIDIPINE] | -4.94 | -4.89 | -4.91 | -4.91 | 93.9 | 80.8 | 74.8 | 83.2 | 99.9 | 91.3 | 81.9 | 86.1 |
| Cc1c(-c2ccc(O)cc2)n(Cc2ccc(OCCN3CCCCCC3)cc2)c2ccc(O)cc12 [BAZEDOXIFENE] | -5 | -4.93 | -4.97 | -4.91 | 87.8 | 70.5 | 76.7 | 75.4 | 87.3 | 75.9 | 79.1 | 83.5 |
| CN(C)CCCOc1nn(Cc2ccccc2)c2ccccc12 [BENZYDAMINE] | -5.5 | -5.19 | -5.29 | -5.21 | 123 | 63.8 | 61.8 | 105 | 81.4 | 53.3 | 47.7 | 85.5 |
| Cc1nnc(C[C@@H]2C=C(c3ccc(Cl)cc3)c3ccccc3-n3c(C)nnc32)o1 [BET-BAY 002] | -5.19 | -5.39 | -5.5 | -6.21 | 42.3 | 35.1 | 29.9 | 58.2 | 39.7 | 27 | 21.8 | 26.3 |
| CCN1CCN(c2cc(-c3ccc(F)cc3)c3c(n2)CCCCCC3)CC1 [BLONANSERIN] | -4.94 | -4.81 | -5.17 | -4.93 | 81.4 | 64.4 | 63.1 | 73.5 | 85.3 | 79.5 | 53.1 | 77.4 |
| COc1cc(Nc2c(C#N)cnc3cc(OCCCN4CCN(C)CC4)c(OC)cc23)c(Cl)cc1Cl [BOSUTINIB] | -4.74 | -4.75 | -4.78 | -4.76 | 71.8 | 74.3 | 75.5 | 80.4 | 79.3 | 75.7 | 74.1 | 71.8 |
| CCOC(=O)Nc1cc(-c2ccc(C)c(NS(C)(=O)=O)c2)nn2c(C)nnc12 [BROMOSPORINE] | -5.01 | -5.51 | -5.25 | -5.23 | 43.6 | 33 | 32.2 | 66.5 | 42.7 | 21.4 | 25.2 | 53.4 |
| CCCCOc1ccc(CC(=O)NO)cc1 [BUFEXAMAC] | -4.28 | -4.33 | -4.28 | -4.2 | 27.2 | 25.5 | 15.7 | 15.4 | 95.6 | 79.2 | 57.1 | 76.7 |
| Nc1cc(C(F)(F)F)c(-c2cc(N3CCOCC3)nc(N3CCOCC3)n2)cn1 [BUPARLISIB] | -5.56 | -6.21 | -5.14 | -5.55 | 58.2 | 43.9 | 81.3 | 95.5 | 41.2 | 21.8 | 67.8 | 59.3 |
| Clc1ccc(CCC(Cn2ccnc2)Sc2c(Cl)cccc2Cl)cc1 (stereo unspecified) [BUTOCONAZOLE] | -4.87 | -4.79 | -4.86 | -4.84 | 80.5 | 37.8 | 59.7 | 69.4 | 85.9 | 47.6 | 57 | 70.3 |
| Cc1cc(C2CCCCC2)n(O)c(=O)c1 [CICLOPIROX] | -5.04 | -6.23 | -6.42 | -6.44 | 84.1 | 142 | 138 | 142 | 72.3 | 63.9 | 57.2 | 58.3 |
| C[C@@H](NCCCc1cccc(C(F)(F)F)c1)c1cccc2ccccc12 [CINACALCET] | -5.05 | -5.03 | -5.03 | -5.04 | 111 | 98.5 | 99.9 | 112 | 94.2 | 84.4 | 82.1 | 90.5 |
| CC(C)/N=c1\cc2n(-c3ccc(Cl)cc3)c3ccccc3nc-2cc1Nc1ccc(Cl)cc1 [CLOFAZIMINE] | -4.88 | -4.91 | -5.16 | -4.91 | 79.8 | 65.3 | 76.3 | 84.9 | 90.6 | 71.5 | 54.4 | 83.8 |
| CCN(CC)CCOc1ccc(C(=C(Cl)c2ccccc2)c2ccccc2)cc1 [CLOMIPHENE] | -5.71 | -5.11 | -4.92 | -5.2 | 139 | 80.2 | 71.2 | 102 | 81.6 | 71.4 | 77 | 84.8 |
| COc1cccc2c1C(=O)c1c(O)c3c(c(O)c1C2=O)C[C@@](O)(C(C)=O)C[C@@H]3O[C@H]1C[C@H](N)[C@H](O)[C@H](C)O1 [DAUNORUBICIN] | -6.13 | -5.62 | -5.69 | -5.94 | 159 | 124 | 141 | 160 | 76.1 | 76.4 | 83.3 | 82.2 |
| CCCCCCCCCCCC[N+](C)(C)CCOc1ccccc1 [DOMIPHEN] | -5.59 | -5.11 | -5.18 | -5.28 | 129 | 79.9 | 95.4 | 109 | 81 | 71.7 | 80.5 | 85.2 |
| CCCCOc1ccc(C(=O)CCN2CCCCC2)cc1 [DYCLONINE] | -5.12 | -5.02 | -4.83 | -5.35 | 110 | 89.2 | 92.7 | 129 | 98.8 | 87.9 | 87.1 | 95.1 |

Reference: the supplement of paper PMC8253809
